Source: patent publication US20250034127A1, “AUTOPHAGY INDUCING COMPOUNDS AND USES THEREOF, IN PARTICULAR FOR DISEASES OF THE CNS” (Samsara Therapeutics Inc., priority 2021, published 2025)

Test system: U2OS cell line stabling expressing RFP-eGFP-hLC3b
Experiment: Tandem reporter assay (autophagic flux)
Assay type: cell-based, human
Details: RFP-only puncta as percentage of DMSO-treated control, 24 hours
Description: Selected compounds of this invention were also assessed for their ability to stimulate autophagy using a U2OS cell line stabling expressing RFP-cGFP-hLC3b (a tandem reporter cell line).
During the process of autophagy, the cargo to be degraded is first enveloped by organelles called autophagosomes. These autophagosomes then fuse with lysosomes, causing them to become acidified and their digestive enzymes to become activated. The term “autophagic flux” is used to represent the dynamic process of autophagy: autophagic flux refers to the whole process of autophagy, including autophagosome formation, maturation, fusion with lysosomes, subsequent breakdown and the release of macromolecules back into the cytosol (Zhang X J, Chen S, Huang K X, Le W D. Why should autophagic flux be assessed? Acta Pharmacol Sin. 2013 May; 34 (5): 595-9. doi: 10.1038/aps.2012.184. Epub 2013 Mar. 11). Compounds that stimulate autophagic flux stimulate the dynamic process of autophagy (the whole process of autophagy).
LC3b is a protein found in the membrane of autophagosomes which has been used to generate genetic reporters of autophagy in cells. In these systems a tandem fusion of LC3b is engineered with two fluorescent proteins of different wavelengths: one which is acid sensitive (for example eGFP, which fluoresces green) and the other which is acid insensitive (for example RFP, which fluoresces red). Cells expressing RFP-cGFP-hLC3b can be examined using fluorescent microscopy: the autophagosomes present will fluoresce in both channels (either yellow in an overlay of both channels or puncta that are present in both the individual red and green channels) but the autolysosomes present will fluoresce in the RFP (red) channel only. Using a fluorescent microscope, the number of autophagosomes and autolysosomes can be counted, allowing for the monitoring of both the induction of autophagy (total puncta count) and the rate of autophagic flux (ratio of red-only to red-and-green puncta). The influence of small molecules on autophagy induction and flux can be assessed using this system by comparison to a non-treated control.
Representative Procedure: Human osteosarcoma U2OS cells stably expressing RFP-eGFP-hLC3b were seeded (10,000 cells/well) into a 96-well glass-bottom plate (Cell Carrier Ultra, Perkin Elmer) in DMEM Glutamax media (Gibco) supplemented with 10% Fetal Bovine Serum (FBS) and antibiotics (100 u/ml penicillin, 100 μg/ml streptomycin, Invitrogen), then incubated overnight in a humified atmosphere at 37° C. and 5% CO2. The cells were then treated with the compounds of interest, dissolved in DMSO, in a duplicated 5- or 10-point dose-response. 8 wells were treated with an equivalent volume of DMSO, 4 with […] torin-1 as a positive control (MCE) and 4 wells with 0.4 μM torin-1 plus 0.2 μM bafilomycin (MCE) as a control for flux inhibition. The cells were returned to the incubator and the treatment continued for 24 hours. After treatment, the media was aspirated off and the cells fixed with a solution of 4% formaldehyde+1% glutaraldehyde (Sigma) in dPBS (plus magnesium and calcium, Gibco). Fixation was allowed to proceed for 15 minutes at room temperature then the fixative solution discarded and replaced with PBS (Gibco) plus Hoescht 33342 (1 μg/ml, Sigma). After 30 minutes the plates were imaged on an Opera Phenix confocal microscope (Perkin-Elmer) using a 40× water objective, collecting using DAPI, mCherry and GFP channels. Cells were detected based upon the staining of their nuclei with DAPI using the Harmony image analysis software (Perkin-Elmer) and the number of autophagosomes (GFP and RFP puncta) and autolysosomes (RFP only puncta) per cell were counted using the spot picking function within the software.

| Compound | Autolysosome % DMSO activity (compound concentration of 1 μM) [%] | Autolysosome % DMSO activity (compound concentration of 10 μM) [%] |
| --- | --- | --- |
| C[C@H]1CN(C(=O)c2csc(-c3cnn(-c4ccc(C5CC5)cc4)c3)n2)CCN1 [Compound 266, (3S)-1-{2-[1-(4-cyclopropylphenyl)-1H-pyrazol-4-yl]-1,3-thiazole-4-carbonyl}-3-methylpiperazine] | 176 | 273 |
| C[C@H]1CN(C(=O)c2csc(-c3cnn(-c4ccc(C(C)(C)C)cc4)c3)n2)CCN1 [Compound 270, (3S)-1-{2-[1-(4-tert-butylphenyl)-1H-pyrazol-4-yl]-1,3-thiazole-4-carbonyl}-3-methylpiperazine] | 251 |  |
| CC(C)c1ccc(-n2cc(-c3nc(C(=O)N4CCN[C@@H](C)C4)cs3)cn2)cc1 [Compound 273, (3S)-3-methyl-1-(2-{1-[4-(propan-2-yl)phenyl]-1H-pyrazol-4-yl}-1,3-thiazole-4-carbonyl)piperazine] | 224 |  |
| C[C@H]1CN(C(=O)c2nc(-c3cnn(-c4ccccc4)c3)c[nH]2)CCN1 [Compound 279, (3S)-3-methyl-1-[5-(1-phenyl-1H-pyrazol-4-yl)-1H-imidazole-2-carbonyl]piperazine] | 123 | 158 |
| CC1CC(N(C(=O)c2csc(-c3cnn(-c4ccccc4)c3)n2)C(C)C)CCN1 (stereo not drawn) [Compound 297, N-(2-methylpiperidin-4-yl)-2-(1-phenyl-1H-pyrazol-4-yl)-N-(propan-2-yl)-1,3-thiazole-4-carboxamide] | 109 | 119 |
| CC1CC(N(C(=O)c2csc(-c3cnn(-c4ccccc4)c3)n2)C(C)C)CC(C)N1 (stereo not drawn) [Compound 298, N-(2,6-dimethylpiperidin-4-yl)-2-(1-phenyl-1H-pyrazol-4-yl)-N-(propan-2-yl)-1,3-thiazole-4-carboxamide] | 187 | 151 |
| CC(C)N(C(=O)c1csc(-c2cnn(-c3ccccc3)c2)n1)[C@@H]1CN[C@H](C)C1 [Compound 299, N-[(3S,5R)-5-methylpyrrolidin-3-yl]-2-(1-phenyl-1H-pyrazol-4-yl)-N-(propan-2-yl)-1,3-thiazole-4-carboxamide] | 162 | 152 |
